Source: patent US6894060B2, “Method for the treatment of dermal lesions caused by envenomation” (3M Innovative Properties Company, priority 2000, dated 2005)

Tested on: Loxosceles reclusa envenomation (spider bite dermal lesions)
Test: Treatment of Loxosceles reclusa envenomation with imiquimod 5% cream (consecutive clinical cases)
Format: in vivo, human
Method: A consecutive series of 7 bites on 5 patients were treated with imiquimod 5% cream (available under the tradename ALDARA from 3M Pharmaceuticals, St. Paul, Minn., USA) applied by the clinic staff, three times per week (typically Monday, Wednesday and Friday) for two weeks. Sufficient cream was used to cover the area of erythema, rubbing the cream gently until it “vanished” as per labeled instructions. In addition, a single intramuscular dose of ceftriaxone 1 gm was given together with oral dicloxicillin, 500 mg bid for 10 days. Patients were re-examined by a physician at 7, 14 and 28 days following initiation of therapy.

CC(C)Cn1cnc2c(N)nc3ccccc3c21 [imiquimod, 1-(2-methylpropyl)-1H-imidazo[4,5-c]quinolin-4-amine]
improvement in induration and erythema by day 7 (7 bites in 5 patients): Marked improvement
resolution of induration and erythema by day 14 (7 bites in 5 patients): full resolution in all but one case
cases with necrosis (7 consecutive cases, versus historical rate 7/12 (0.583): binomial p=0.002, Chi-square p=0.01): 0 out of 7
residual scarring or pigmentation changes (day 28 follow-up visit): No residual scarring or pigmentation changes
development of necrosis (imiquimod treated cases, 7 bites in 5 patients): Necrosis did not develop in any
erythema, 14 Day Follow-up (patient five, right calf bite): present
ulcer status, 14 Day Follow-up (patient five, right calf bite): Ulcer healed
erythema, 7 Day Follow-up (patient five, right calf bite, 1.2 cm erythema at presentation): No erythema
ulcer, 7 Day Follow-up (patient five, right calf bite, 1.8 cm central core at presentation): 0.75 cm ulcer
erythema resolved by (day) (patient five, right calf bite, erythema present at day 14): d28)
pain, 7 Day Follow-up (patient five, right calf bite, painful at presentation): Decreased pain
reappearance of erythema, presumed to be secondary to imiquimod (patient five, erythema cleared at the day 7 visit): developed again by day 14
lesion status, 14 Day Follow-up (patient four, right calf bite): Completely
induration, 7 Day Follow-up (patient four, right calf bite, 1.5 cm induration at presentation, cream three times per week for two weeks): 0.5 cm
erythema, 7 Day Follow-up (patient four, right calf bite, 9 cm erythema at presentation): No erythema
pain or tenderness, 7 Day Follow-up (patient four, right calf bite, painful at presentation): No pain or
lesion status, 14 Day Follow-up (patient one, right calf bite): Completely
firm induration, 7 Day Follow-up (patient one, right calf bite, 1.3 cm induration at presentation): 1.25 cm firm
induration (second entry of the cell), 7 Day Follow-up (patient one, right calf bite, 10 cm erythema at presentation): 5 cm
tenderness, 7 Day Follow-up (patient one, right calf bite, very painful at presentation): Non-tender
time from bite to resolution (patient three, first bite): 9 days
lesion status, 7 Day Follow-up (patient three, left buttock bite, 1.0 cm induration, erythema, painful at presentation): Completely
lesion status, 14 Day Follow-up (patient three, right thigh bite): Completely
central core, 7 Day Follow-up (patient three, right thigh bite, 1.5 cm induration at presentation): 2.5 cm
erythema, 7 Day Follow-up (patient three, right thigh bite, 7.5 × 11 cm erythema at presentation): No erythema
pain or tenderness, 7 Day Follow-up (patient three, right thigh bite, tender at presentation): No pain or
lesion status, 14 Day Follow-up (patient two, left thigh bite): Completely
central core, 7 Day Follow-up (patient two, left thigh bite, 1.0 cm central core at presentation): 0.5 cm
erythema, 7 Day Follow-up (patient two, left thigh bite, 6.0 cm erythema at presentation): 2.0 cm
lesion status, 14 Day Follow-up (patient two, right breast bite): Completely
central core, 7 Day Follow-up (patient two, right breast bite, 1.2 cm central core at presentation): 1.0 cm
erythema, 7 Day Follow-up (patient two, right breast bite, 3.0 cm erythema at presentation): No erythema
time to pain relief following the first dose (reported by all patients, 7 bites in 5 patients): 1 to 2 days
